Measured values as given in patent US9730445B2, “Herbicidal compositions comprising 4-amino-3-chloro-5-fluoro-6-(4-chloro-2-fluoro-3-methoxyphenyl) pyridine-2-carboxylic acid or a derivative thereof and fungicides” (DOW AGROSCIENCES LLC, priority 2013, dated 2017).

Experiments:
DIGSA = assay: Postemergence foliar-applied weed control, direct-seeded rice (greenhouse); type: in vivo, Digitaria sanguinalis (L.) Scop. (large crabgrass)
Description: (§1) Seeds or nutlets of the desired test plant species were planted in a soil matrix prepared by mixing aloam or sandy loam soil (e.g., 28.6 percent silt, 18.8 percent clay, and 52.6 percent sand, with a pH of about 5.8 and an organic matter content of about 1.8 percent) and calcareous grit in an 80 to 20 ratio. The soil matrix was contained in plastic pots with a volume of 1 quart and a surface area of 83.6 square centimeters (cm^2). When required to ensure good germination and healthy plants, a fungicide treatment and/or other chemical or physical treatment was applied. The plants were grown for 8-22 days in a greenhouse with an approximate 14 hour (h) photoperiod which was maintained at about 29° C. during the day and 26° C. during the night. Nutrients (Peters Excel® 15-5-15 5-Ca 2-Mg and iron chelate) were applied in the irrigation solution as needed and water was added on a regular basis. Supplemental lighting was provided with overhead metal halide 1000-Watt lamps as necessary. The plants were employed for testing when they reached the first through fourth true leaf stage.
(§2) Treatments consisted of the acid or esters of 4-amino-3-chloro-5-fluoro-6-(4-chloro-2-fluoro-3-methoxy-phenyl)pyridine-2-carboxylic acid (Compound A), each formulated as an SC (suspension concentrate), and various fungicidal components alone and in combination. Forms of compound A were applied on an acid equivalent basis.
(§3) Treatment requirements were calculated based upon the rates being tested, the concentration of active ingredient or acid equivalent in the formulation and a 12 milliliter (mL) application volume at a rate of 187 liters per hectare (L/ha).
(§4) For treatments comprised of formulated compounds, measured amounts of compounds were placed individually in 25 mL glass vials and diluted in a volume of 1.25% volume per volume (v/v) Agri-Dex® crop oil concentrate to obtain 12× stock solutions. […] Application solutions were prepared by adding an appropriate amount of each stock solution (e.g., 1 mL) and diluted to the appropriate final concentrations with the addition of […] of an aqueous mixture of 1.25% (v/v) crop oil concentrate so that the final spray solutions contained 1.25+/−0.05% (v/v) crop oil concentrate.
(§5) For treatments comprised of technical compounds, weighed amounts can be placed individually in 25 mL glass vials and dissolved in a volume of 97:3 volume per volume (v/v) acetone/dimethyl sulfoxide (DMSO) to obtain 12× stock solutions. […] When technical materials are used, the concentrated stock solutions can be added to the spray solutions so that the final acetone and DMSO concentrations of the application solutions are 16.2% and 0.5%, respectively.
(§6) As required, additional water and/or 97:3 v/v acetone/DMSO was added to individual application solutions so that the final acetone and DMSO concentrations of the application solutions being compared were 8.1% and 0.25%, respectively
(§7) All stock solutions and applications solutions were visually inspected for compound compatibility prior to application. Spray solutions were applied to the plant material with an overhead Mandel track sprayer equipped with 8002E nozzles calibrated to deliver 187 L/ha over an application area of 0.503 square meters (m^2) at a spray height of 18 to 20 inches (46 to 50 cm) above average plant canopy height. Control plants were sprayed in the same manner with the solvent blank.
(§8) The treated plants and control plants were placed in a greenhouse as described above and watered by sub-irrigation to prevent wash-off of the test compounds. After approximately 3 weeks, the condition of the test plants as compared with that of the untreated plants was determined visually and scored on a scale of 0 to 100 percent where 0 corresponds to no injury or growth inhibition and 100 corresponds to complete kill. […]

ECHCG = assay: as above; type: in vivo, Echinochloa crus-galli (L.) P. Beauv. (barnyardgrass); settings: r38-39 ester 8/16 g ae/ha alone, r40 isotianil 380 g ai/ha alone, r41-42 ester 8/16 + 380
Procedure: as §1, with “When required to ensure good germination and healthy plants, a fungicide treatment and/or other chemical or physical treatment was applied.” left out
as §2, §4, §5, §6, §7
(§9) The treated plants and control plants were placed in a greenhouse as described above and watered by sub-irrigation to prevent wash-off of the test compounds. After approximately 3 weeks, the condition of the test plants as compared with that of the untreated plants was determined visually and scored on a scale of 0 to 100 percent where 0 corresponds to no injury or growth inhibition and 100 corresponds to complete kill.
(§10) Colby's equation was used to determine the herbicidal effects expected from the mixtures (Colby, S. R. Calculation of the synergistic and antagonistic response of herbicide combinations. Weeds 1967, 15, 20-22.).
(§11) The following equation was used to calculate the expected activity of mixtures containing two active ingredients, A and B: Expected=A+B−(A×B/100)

BRAPP = assay: as above; type: in vivo
Description: as §1, §2, §3, §4, §5, §6, §7, §8

ECHCO = assay: as above; type: in vivo, Echinochloa colonum (L.) LINK (junglerice); settings: 21 DAA, r38-39 ester 8/16 g ae/ha alone, r40 isotianil 380 g ai/ha alone, r41-42 ester 8/16 + 380
Description: as §1, §2, §3, §4, §5, §6, §7, §8

LEFCH [1] = assay: as above; type: in vivo, Leptochloa chinensis (L.) Nees (Chinese sprangletop); settings: 21 DAA, r38-39 ester 8/16 g ae/ha alone, r40 isotianil 380 g ai/ha alone, r41-42 ester 8/16 + 380
Procedure: as §1, with “When required to ensure good germination and healthy plants, a fungicide treatment and/or other chemical or physical treatment was applied.” left out
as §2, §4, §5, §6, §7, §9, §10, §11

CYPES = assay: as above; type: in vivo, Cyperus esculentus L. (yellow nutsedge); settings: r11-12 ester 8/16 g ae/ha alone, r13 pyroquilon 925 g ai/ha alone, r14-15 ester 8/16 + 925
Procedure: as §1, with “When required to ensure good germination and healthy plants, a fungicide treatment and/or other chemical or physical treatment was applied.” left out
as §2, §4, §5, §6, §7, §8

CYPIR = assay: as above; type: in vivo, Cyperus iria L. (rice flatsedge); settings: 21 DAA, r23-24 ester 16/32 g ae/ha alone, r25 pyroquilon 925 g ai/ha alone, r26-27 ester 16/32 + 925
Procedure: as §1, with “When required to ensure good germination and healthy plants, a fungicide treatment and/or other chemical or physical treatment was applied.” left out
as §2, §4, §5, §6, §7, §9, §10, §11

LEFCH [2] = assay: In-water applied weed control, transplanted paddy rice (greenhouse); type: in vivo, Leptochloa chinensis (L.) Nees (Chinese sprangletop)
Procedure: (§12) Weed seeds or nutlets of the desired test plant species were planted in puddled soil (mud) prepared by mixing a shredded, non-sterilized mineral soil (50.5 percent silt, 25.5 percent clay, and 24 percent sand, with a pH of about 7.6 and an organic matter content of about 2.9 percent) and water at a 1:1 volumetric ratio. The prepared mud was dispensed in 365 mL aliquots into 16-ounce (oz.) non-perforated plastic pots with a surface area of 86.59 square centimeters (cm^2) leaving a headspace of 3 centimeters (cm) in each pot. Rice seeds were planted in Sun Gro MetroMix® 306 planting mixture, which typically has a pH of 6.0 to 6.8 and an organic matter content of about 30 percent, in plastic plug trays. Seedlings at the second or third leaf stage of growth were transplanted into 860 mL of mud contained in 32-oz. non-perforated plastic pots with a surface area of 86.59 cm^2 4 days prior to herbicide application. The paddy was created by filling the headspace of the pots with 2.5 to 3 cm of water. When required to ensure good germination and healthy plants, a fungicide treatment and/or other chemical or physical treatment was applied. The plants were grown for 4-22 days in a greenhouse with an approximate 14 hour (h) photoperiod which was maintained at about 29° C. during the day and about 26° C. during the night. Nutrients were added as Osmocote® (17:6:10, N:P:K+minor nutrients) at 2 g per cup. Water was added on a regular basis to maintain the paddy flood, and supplemental lighting was provided with overhead metal halide 1000-Watt lamps as necessary. The plants were employed for testing when they reached the first through fourth true leaf stage. […]
(§13) Treatment requirements for each compound or fungicidal component were calculated based upon the rates being tested, the concentration of active ingredient or acid equivalent in the formulation, an application volume of 2 mL per component per pot, and an application area of 86.59 cm^2 per pot.
(§14) For formulated compounds, a measured amount was placed in an individual 100 or 200 mL glass vial and was dissolved in a volume of 1.25% (v/v) Agri-Dex® crop oil concentrate to obtain application solutions. […]
as §8, with “water was added as needed” for “watered by sub-irrigation”, “maintain a paddy flood.” for “prevent wash-off of the test compounds.”, “weeks” for “weeks,”

CYPRO = assay: as above; type: in vivo, Cyperus rotundus L. (purple nutsedge)
Procedure: Weed seeds or nutlets of the desired test plant species were planted in puddled soil (mud) prepared by mixing a shredded, non-sterilized mineral soil (50.5 percent silt, 25.5 percent clay, and 24 percent sand, with a pH of about 7.6 and an organic matter content of about 2.9 percent) and water at a 1:1 volumetric ratio. The prepared mud was dispensed in 365 mL aliquots into 16-ounce (oz.) non-perforated plastic pots with a surface area of 86.59 square centimeters (cm^2) leaving a headspace of 3 centimeters (cm) in each pot. Rice seeds were planted in Sun Gro MetroMix® 306 planting mixture, which typically has a pH of 6.0 to 6.8 and an organic matter content of about 30 percent, in plastic plug trays. Seedlings at the second or third leaf stage of growth were transplanted into 860 mL of mud contained in 32-oz. non-perforated plastic pots with a surface area of 86.59 cm^2 4 days prior to herbicide application. The paddy was created by filling the headspace of the pots with 2.5 to 3 cm of water. When required to ensure good germination and healthy plants, a fungicide treatment and/or other chemical or physical treatment was applied. The plants were grown for 4-22 days in a greenhouse with an approximate 14 hour (h) photoperiod which was maintained at about 29° C. during the day and about 26° C. during the night. Nutrients were added as Osmocote® (17:6:10, N:P:K+minor nutrients) at 2 g per cup. Water was added on a regular basis to maintain the paddy flood, and supplemental lighting was provided with overhead metal halide 1000-Watt lamps as necessary. The plants were employed for testing when they reached the first through fourth true leaf stage.
as §2, with “(compound A)” for “(Compound A),”, “concentrate)” for “concentrate),”
as §13
For formulated compounds, a measured amount was placed in an individual 100 or 200 mL glass vial and was dissolved in a volume of 1.25% (v/v) Agri-Dex® crop oil concentrate to obtain application solutions.
For technical grade compounds, a weighed amount was placed in an individual 100 to 200 mL glass vial and dissolved in a volume of acetone to obtain concentrated stock solutions.
Applications were made by injecting with a pipetter appropriate amounts of the application solutions, individually and sequentially, into the aqueous layer of the paddy. Control plants were treated in the same manner with the solvent blank. Applications were made so that all treated plant material received the same concentrations of acetone and crop oil concentrate.
as §9, with “water was added as needed” for “watered by sub-irrigation”, “maintain a paddy flood.” for “prevent wash-off of the test compounds.”, “weeks” for “weeks,”
as §10, §11

FIMMI = assay: as above; type: in vivo, Fimbristylis miliacea (L.) Vahl (globe fringerush); settings: Tricyclazole 200 g ai/ha
Procedure: as §12, §13, §14
as §8, with “water was added as needed” for “watered by sub-irrigation”, “maintain a paddy flood.” for “prevent wash-off of the test compounds.”, “weeks” for “weeks,”

[3] = 21 DAA, r38-39 ester 8/16 g ae/ha alone, r40 isotianil 380 g ai/ha alone, r41-42 ester 8/16 + 380

N#Cc1ccccc1NC(=O)c1snc(Cl)c1Cl [Isotianil, 3,4-dichloro-2′-cyano-1,2-thiazole-5-carboxanilide, reference compound]
0%: Visual Weed Control (%)—20 DAA DIGSA Obs (DIGSA; 20 DAA, r21-23 ester 8/16/32 g ae/ha alone, r24-25 isotianil 100/200 g ai/ha alone, r26-31 ester 8/16/32 at each of 100, 200) | Visual Weed Control (%)—21 DAA DIGSA Obs (DIGSA; [3]) | Visual Weed Control (%)—21 DAA ECHCG Obs (ECHCG) | Visual Weed Control (%)—20 DAA BRAPP Obs (BRAPP; 20 DAA, r9-11 ester 8/16/32 g ae/ha alone, r12 isotianil 200 g ai/ha alone, r13-15 ester 8/16/32 + 200) | Visual Weed Control (%)—21 DAA BRAPP Obs (BRAPP; [3]) | Visual Weed Control (%)—21 DAA ECHCO Obs (ECHCO) | Visual Weed Control (%)—21 DAA LEFCH Obs (LEFCH [1])

O=C1CCc2cccc3c2N1CC3 [Pyroquilon, 1,2,5,6-tetrahydropyrrolo[3,2,1-ij]quinolin-4-one, reference compound]
0%: Visual Weed Control (%) - 21 DAA CYPES Obs (CYPES) | Visual Weed Control (%) - 21 DAA CYPIR Obs (CYPIR)

Cc1cccc2sc3nncn3c12 [Tricyclazole, 5-methyl-1,2,4-triazolo[3,4-b][1,3]benzothiazole, reference compound]
0%: Visual Weed Control (%) - 19 DAA LEFCH Obs (LEFCH [2]; Tricyclazole 187.5 g ai/ha) | Visual Weed Control (%) - 19 DAA LEFCH Obs (LEFCH [2]; Tricyclazole 750 g ai/ha) | Visual Weed Control (%) - 22 DAA CYPRO Obs (CYPRO; Tricyclazole 200 g ai/ha, 22 DAA) | Visual Weed Control (%) - 19 DAA CYPRO Obs (CYPRO; Tricyclazole 375 g ai/ha) | Visual Weed Control (%) - 19 DAA CYPRO Obs (CYPRO; Tricyclazole 750 g ai/ha) | Visual Weed Control (%) - 22 DAA FIMMI Obs (FIMMI)
